Here are results for 7 substances from patent US20030027218A1, “PEPTIDES PROMOTING THE ACTIVATION OF LATENT TGF-BETA AND METHOD FOR SCREENING TGF-BETA ACTIVITY REGULATORS” (priority 1997, published 2003).

Test [1] relates to bovine aortic endothelial cells (BAEC). Put plainly: Degree of binding of 125I-LLTGF-β to bovine aortic endothelial cells (radioactivity). The test is classed as cell-based. Conditions: test compound 100 μg/ml.
The subject of test [2] is bovine capillary endothelial cells (BCEC). Description: Degree of binding of 125I-LLTGF-β to bovine capillary endothelial cells (radioactivity). Conditions: for Radioactivity (cpm), n = 4: BCEC, 2 ng/ml 125I-LLTGF-β, 4° C. 3 hours. The test is classed as cell-based. The procedure: LLTGF-β isolated and purified from human platelets by the method of Okada, et al. [Journal of Biochemistry, 106, 304 (1989)] was ^125I-labeled according to the chloramine T method [Molecular & Cellular Biology, 2, 599 (1982)] in the following manner.
To 2 μg of LLTGF-β were added 25 μl of 1 M K-phosphate buffer (pH 7.5), 37 MBq of Na-^125I (DuPont NEN) and 10 μl of chloramine-T (0.5 mg/100 μl in 0.05 MK-phos. buffer, Wako Pure Chemical Industries, Ltd.), followed by stirring at room temperature for 40 seconds. After 15 μl of Na2S2O5 (1 mg/100 μl in 0.05 M K-phos. buffer) was added, the mixture was stirred at room temperature for 5 seconds, followed by addition of 100 μl of an aqueous solution of tyrosine (1 mg/ml). The reaction mixture was applied to a Sephadex G25 column and the eluate was taken in 500 μl fractions. Each fraction was subjected to measurement of radioactivity using a γ-counter (ARC-2000, Aloka Co., Ltd.). The fractions containing labeled protein were selected for use in the experiment.
The cells to be used in the experiment were obtained according to the method of Sato, et al. [Journal of Cell Biology, 123, 1249 (1993)]. Bovine vascular smooth muscle cells (BSMC) and porcine vascular smooth muscle cells (PSMC) were isolated from bovine aorta and porcine aorta, respectively, and cultured by the explant method [Journal of Cell Biology, 50, 172 (1971)]. Bovine capillary endothelial cells (BCEC) were isolated from bovine adrenal capillary and cultured. Bovine aortic endothelial cells (BAEC) were isolated from bovine aortic and cultured.
The following procedure was carried out according to the method of Sato, et al. [Journal of Cell Biology, 123, 1249 (1993)].
BSMC, PSMC and BCEC isolated and cultured in the above-described manner were respectively put into 35 mm dishes in an amount of 4×10^4 cells/dish. On the next day, the medium was replaced by Dulbecco's Modified Eagle's Medium (DMEM, Nissui Pharmaceutical Co.) containing 0.1% bovine serum albumin (BSA), followed by incubation for 5 hours. After the cells were washed with 2 ml of phosphate-buffered saline containing 0.1 g/l each of MgCl2.6H2O and CaCl2 [hereinafter sometimes referred to as PBS(+); phosphate-buffered saline containing neither MgCl2.6H2O nor CaCl2 is referred to as PBS (−)], the medium was replaced by 1 ml of ice-cold DMEM containing 0.1% BSA, 2 ng/ml ^125I-LLTGF-β and a test compound, followed by incubation at 4° C. for 3 hours. […] After being washed three times with 2 ml of ice-cold PBS(+), the cells were lysed with 900 μl of 0.5% Triton X-100 (room temperature, 0.5-1 hour), and 800 μl of the lysate was subjected to measurement of radioactivity using a γ-counter.

Another test deals with active TGF-β. Put plainly: Determination of active TGF-β by luciferase assay (BCEC culture supernatant on MLEC carrying PAI-1 promoter luciferase). The test is classed as cell-based, bovine. Conditions: BCEC incubated with test compound 24 hours. The method, then: The amount of active TGF-β was determined by measuring the luminescence of mink lung epithelial cells (MLEC) carrying the luciferase gene introduced downstream of the PAI-1 promoter by luciferase assay system (Promega) according to the method of Abe, et al. [Analytical Biochemistry, 216, 276 (1994)] as described below.
BCEC were cultured in a 24-well plate to make a confluent layer and then the medium was replaced by DMEM containing 0.1% BSA. After 6 hours, the cells were scraped reticulately with a comb and the remaining cells were washed with PBS (−) , followed by incubation in DMEM containing 0.1% BSA and a test compound for 24 hours. The resulting culture supernatant was taken as a sample. Six hours before the sampling of this culture supernatant, the above-mentioned MLEC were put into wells of a 96-well plate in an amount of 2.8×10^4 cells/well. After the cells were cultured in DMEM containing 10% fetal calf serum (FCS) for 6 hours, the medium was replaced by the above culture supernatant sample, followed by incubation for 16 hours. The cells were washed twice with PBS (−) and then subjected to measurement of active TGF-β concentration by lucuferase assay system.

The test system of test [3] is bovine capillary endothelial cells (BCEC). Description: Migration of bovine vascular endothelial cells (release of active TGF-β from latent TGF-β). The settings on record: 24 hours, 10 /μg/ml. The test is classed as cell-based. The method, then:
The following procedure was carried out according to the method of Sato, et al. [Journal of Cell Biology, 123, 1249 (1993)]. were scraped with a razor, the remaining cells were washed with PBS (−), followed by incubation in DMEM containing 0.1% BSA and a test compound. After 24 hours, the number of the cells which migrated in four fileds of a microscope (IX70, Olympus) was counted for each dish. The test compound was added in the same manner as in Test Example 1. The migration of cells was inhibited and the release of active TGF-β from latent TGF-β was promoted by Compounds 3 and 5 to 9 at a concentration of 50 μg/ml.

Where [4] appears, read: test compound 100 μg/ml, vehicle 416.8 ± 89.6.
Setting [5] is: concentrations indicated in FIG. 6.

Positions of bridges follow the written chain, without caps; N, C: chain ends. *: point of attachment. Biotin = O=C1N[C@H]2[C@H](CS[C@H]2CCCCC(=O)*)N1

In the case of “Biotinyl-cyclo(Cys-Val-Leu-Leu-Ser-Arg-Ala-Glu-Leu-Arg-Leu-Leu-Arg-Arg-Leu-Lys-Leu-Lys-Cys)-OH (Biotin-CVLLSRAELRLLRRLKLKC-OH; disulfide 1-19; SMILES CC(C)C[C@@H]1NC(=O)[C@H](CCC(=O)O)NC(=O)[C@H](C)NC(=O)[C@H](CCCNC(=N)N)NC(=O)[C@H](CO)NC(=O)[C@H](CC(C)C)NC(=O)[C@H](CC(C)C)NC(=O)[C@H](C(C)C)NC(=O)[C@@H](NC(=O)CCCC[C@@H]2SC[C@@H]3NC(=O)N[C@@H]32)CSSC[C@@H](C(=O)O)NC(=O)[C@H](CCCCN)NC(=O)[C@H](CC(C)C)NC(=O)[C@H](CCCCN)NC(=O)[C@H](CC(C)C)NC(=O)[C@H](CCCNC(=N)N)NC(=O)[C@H](CCCNC(=N)N)NC(=O)[C@H](CC(C)C)NC(=O)[C@H](CC(C)C)NC(=O)[C@H](CCCNC(=N)N)NC1=O) [Compound 13]”, in test [1] (Table 5, vehicle 1076.5 ± 12.0), the “Radioactivity (cpm), n = 4” value was 4704.0 ± 939.9 cpm.

With “H-Leu-Lys-Leu-Lys-Val-Glu-Gln-His-Val-Glu-Leu-Tyr-Gln-Lys-Tyr-Ser-Asn-Asn-Ser-Trp-Arg-OH (H-LKLKVEQHVELYQKYSNNSWR-OH) [Compound 15]”, in test [2] (setting [4]), the “Radioactivity (cpm), n = 4” value is listed as 5621.1 ± 889.2 cpm.

Regarding “H-Leu-Ser-Thr-Cys-Lys-Thr-Ile-Asp-Met-Glu-Leu-Val-Lys-Arg-Lys-Arg-OH (H-LSTCKTIDMELVKRKR-OH) [Compound 14]”, the “Radioactivity (cpm), n = 4” value in test [2] (setting [4]) is recorded as 3369.9 ± 166.8 cpm.

Regarding “H-cyclo(Cys-Val-Leu-Leu-Ser-Arg-Ala-Glu-Leu-Arg-Leu-Leu-Arg-Arg-Leu-Lys-Leu-Lys-Cys)-OH (H-CVLLSRAELRLLRRLKLKC-OH; disulfide 1-19; SMILES CC(C)C[C@@H]1NC(=O)[C@H](CCC(=O)O)NC(=O)[C@H](C)NC(=O)[C@H](CCCNC(=N)N)NC(=O)[C@H](CO)NC(=O)[C@H](CC(C)C)NC(=O)[C@H](CC(C)C)NC(=O)[C@H](C(C)C)NC(=O)[C@@H](N)CSSC[C@@H](C(=O)O)NC(=O)[C@H](CCCCN)NC(=O)[C@H](CC(C)C)NC(=O)[C@H](CCCCN)NC(=O)[C@H](CC(C)C)NC(=O)[C@H](CCCNC(=N)N)NC(=O)[C@H](CCCNC(=N)N)NC(=O)[C@H](CC(C)C)NC(=O)[C@H](CC(C)C)NC(=O)[C@H](CCCNC(=N)N)NC1=O) [Compound 12]”, the “Radioactivity (cpm), n = 4” value in test [2] (test compound 30 μg/ml, vehicle 163.1 ± 28.3) is listed as 2739.9 ± 182.8 cpm. In addition, in test [2] (concentration of 30 μg/ml, BCEC (Table 3)), the “degree of binding of TGF-β to cells” value was “increased”.

For the substance “Biotinyl-Gly-Arg-Arg-Leu-Lys-Leu-Lys-Val-Glu-Gln-His-Val-Glu-Leu-Tyr-Gln-Lys-Tyr-Ser-Asn-Asn-Ser-Trp-Arg-OH (Biotin-GRRLKLKVEQHVELYQKYSNNSWR-OH; SMILES CC(C)C[C@H](NC(=O)[C@H](CCCNC(=N)N)NC(=O)[C@H](CCCNC(=N)N)NC(=O)CNC(=O)CCCC[C@@H]1SC[C@@H]2NC(=O)N[C@@H]21)C(=O)N[C@@H](CCCCN)C(=O)N[C@@H](CC(C)C)C(=O)N[C@@H](CCCCN)C(=O)N[C@H](C(=O)N[C@@H](CCC(=O)O)C(=O)N[C@@H](CCC(N)=O)C(=O)N[C@@H](Cc1c[nH]cn1)C(=O)N[C@H](C(=O)N[C@@H](CCC(=O)O)C(=O)N[C@@H](CC(C)C)C(=O)N[C@@H](Cc1ccc(O)cc1)C(=O)N[C@@H](CCC(N)=O)C(=O)N[C@@H](CCCCN)C(=O)N[C@@H](Cc1ccc(O)cc1)C(=O)N[C@@H](CO)C(=O)N[C@@H](CC(N)=O)C(=O)N[C@@H](CC(N)=O)C(=O)N[C@@H](CO)C(=O)N[C@@H](Cc1c[nH]c2ccccc12)C(=O)N[C@@H](CCCNC(=N)N)C(=O)O)C(C)C)C(C)C) [Compound 16]”, the “Radioactivity (cpm), n = 4” value in test [1] (Table 6, vehicle 792.0 ± 107.0) was determined as 10495.0 ± 803.0 cpm.

With “H-Leu-Ser-Thr-Ser-Lys-Thr-Ile-Asp-Met-Glu-Leu-Val-Lys-Arg-Lys-Arg-Ile-Glu-Ala-Ile-Arg-Gly-Cys-OH (H-LSTSKTIDMELVKRKRIEAIRGC-OH) [Compound 3]”, the “release of active TGF-β (luciferase assay)” value in the test on active TGF-β (setting [5]) is “Active TGF-β was released”.

For the substance “H-cyclo(Cys-Leu-Ser-Thr-Ser-Lys-Thr-Ile-Asp-Met-Glu-Leu-Val-Lys-Arg-Lys-Arg-Ile-Glu-Ala-Ile-Arg-Gly-Cys)-OH (H-CLSTSKTIDMELVKRKRIEAIRGC-OH; disulfide 1-24; SMILES CC[C@H](C)[C@@H]1NC(=O)[C@H](C)NC(=O)[C@H](CCC(=O)O)NC(=O)[C@H]([C@@H](C)CC)NC(=O)[C@H](CCCNC(=N)N)NC(=O)[C@H](CCCCN)NC(=O)[C@H](CCCNC(=N)N)NC(=O)[C@H](CCCCN)NC(=O)[C@H](C(C)C)NC(=O)[C@H](CC(C)C)NC(=O)[C@H](CCC(=O)O)NC(=O)[C@H](CCSC)NC(=O)[C@H](CC(=O)O)NC(=O)[C@H]([C@@H](C)CC)NC(=O)[C@H]([C@@H](C)O)NC(=O)[C@H](CCCCN)NC(=O)[C@H](CO)NC(=O)[C@H]([C@@H](C)O)NC(=O)[C@H](CO)NC(=O)[C@H](CC(C)C)NC(=O)[C@@H](N)CSSC[C@@H](C(=O)O)NC(=O)CNC(=O)[C@H](CCCNC(=N)N)NC1=O) [Compound 10]”, the migration inhibitory effect entry in test [3] was “showed the migration inhibitory effect”. The “release of active TGF-β (luciferase assay)” value is recorded as “remarkable effect” in the test on active TGF-β (concentration of 10 μg/ml) and “Active TGF-β was released” in the test with active TGF-β (setting [5]).
